System: Alternaria alternata
Assay: Alternaria alternata in vitro cell test
Assay type: cell-based
Conditions: 120 h, 20 ppm of active ingredient, liquid culture with spores, 5 days incubation, spectrometric measurement of mycelium growth, read-out: efficacy (inhibition of fungal growth)
Method: (§1) B-5. Alternaria alternata In Vitro Cell Test • Solvent: DMSO • Culture medium: 14.6 g anhydrous D-glucose (VWR), 7.1 g Mycological Peptone (Oxoid), 1.4 g granulated Yeast Extract (Merck), QSP 1 liter • Inoculum: spores suspension • Fungicides were solubilized in DMSO and the solution used to prepare the required range of concentrations. […] A spore suspension of A. alternata was prepared and diluted to the desired spore density. Fungicides were evaluated for their ability to inhibit spore germination and mycelium growth in liquid culture assay. The compounds were added in the desired concentration to the culture medium with spores. After 5 days incubation, fungi-toxicity of compounds was determined by spectrometric measurement of mycelium growth. Inhibition of fungal growth was determined by comparing the absorbance values in wells containing the fungicides with the absorbance in control wells without fungicides.

| Compound | inhibition at 20 ppm |
| --- | --- |
| Cc1ccc(CC2CON=C(c3cc(N4CCCC4)ncc3Oc3cccc(C(F)(F)F)c3)N2)cc1 (racemic) [Compound I-056, (5RS)-5-(4-methylbenzyl)-3-{2-(pyrrolidin-1-yl)-5-[3-(trifluoromethyl)phenoxy]pyridin-4-yl}-5,6-dihydro-4H-1,2,4-oxadiazine] | 90 to 100% |
| Cc1ccc(CC2CCN=C(c3cc(Cl)ncc3Oc3cccc(C(F)(F)F)c3)N2)c(C)c1 (racemic) [Compound I-088, rac-(6R)-2-[2-chloro-5-[3-(trifluoromethyl)phenoxy]-4-pyridyl]-6-[(2,4-dimethylphenyl)methyl]-1,4,5,6-tetrahydropyrimidine] | 80 to 89% |
| Cc1ccc(CC2CC(=O)N=C(c3cc(Cl)ncc3Oc3cccc(C(F)(F)F)c3)N2)c(C)c1 (racemic) [Compound I-098, rac-(6R)-2-[2-chloro-5-[3-(trifluoromethyl)phenoxy]-4-pyridyl]-6-[(2,4-dimethylphenyl)methyl]-5,6-dihydro-1H-pyrimidin-4-one] | 80 to 89% |

System: Pyricularia oryzae
Assay: microbe, parasite or virus in culture
Assay type: cell-based
Conditions: 120 h, read-out: efficacy (inhibition of fungal growth)

| Compound | inhibition at 20 ppm |
| --- | --- |
| Cc1ccc(CC2CON=C(c3cc(N4CCCC4)ncc3Oc3cccc(C(F)(F)F)c3)N2)cc1 (racemic) [Compound I-056, (5RS)-5-(4-methylbenzyl)-3-{2-(pyrrolidin-1-yl)-5-[3-(trifluoromethyl)phenoxy]pyridin-4-yl}-5,6-dihydro-4H-1,2,4-oxadiazine] | 80 to 89% |

System: not listed separately
Assay: physchem
Assay type: physicochemical
Conditions: not given
Method: Measurement of Log P values as provided herein was performed according to EEC directive 79/831 Annex V.A8 by HPLC (High Performance Liquid Chromatography) on reversed phase columns with the following methods: • ^[a]
If more than one Log P value is available within the same method, all the values are given and separated by “+”.
Lambda-max-values were determined using UV-spectra from 200 nm to 400 nm and the peak values of the chromatographic signals

| Compound | LogP |
| --- | --- |
| O=C(O)c1cc(Cl)ncc1Oc1cccc(C(F)F)c1 [Compound 1-10] | 2.48^[a] |
| O=C(O)c1cc(Cl)ncc1Oc1cccc(Cl)c1 [Compound 1-11] | 2.76^[a] |
| O=C(O)c1cc(Cl)ncc1Oc1cccc(C2CC2)c1 [Compound 1-12] | 2.87^[a] |
| O=C(O)c1cc(Cl)nc(F)c1Oc1cccc(C(F)(F)F)c1 [Compound 1-14] | 2.95^[a] |
| COc1cc(C(=O)O)c(Oc2cccc(C(F)(F)F)c2)cn1 [Compound 1-15] | 2.86^[a] |
| O=C(O)c1c(Oc2cccc(C(F)(F)F)c2)cnc(Cl)c1I [Compound 1-17] | 2.49^[a] |
| Cc1ccc(CC(CON2C(=O)c3ccccc3C2=O)NC(=O)OC(C)(C)C)c(Cl)c1 (stereo not shown) [Compound 2-05] | 4.41^[a] |
| Cc1ccc(CC(CON)NC(=O)c2cc(Cl)ncc2Br)c(C)c1 (stereo not shown) [Compound 6-01] | 2.20^[a] |
| Cc1ccc(CC(CON2C(=O)c3ccccc3C2=O)NC(=O)c2cc(Cl)ncc2Br)c(C)c1 (stereo not shown) [Compound 6-02] | 4.13^[a] |
| OC1CON=C(c2cc(Cl)ncc2Oc2cccc(C(F)(F)F)c2)N1 (stereo not shown) [Compound 32-01] | 2.11^[a] |
| Cc1ccc(CC2CON=C(c3c(Oc4cccc(C(F)(F)F)c4)cnc(Cl)c3I)N2)c(C)c1 (stereo not shown) [Compound I-077] | 4.66^[a] |
| Clc1ccc(CC2CON=C(c3cc(Cl)ncc3Oc3ccc4c(c3)CCO4)N2)c(Cl)c1 (stereo not shown) [Compound I-130] | 4.30^[a] |
| C=CC(C)Nc1c(Cl)ncc(Oc2cccc(C(F)(F)F)c2)c1C1=NOCC(Cc2ccc(C)cc2C)N1 (stereo not shown) [Compound I-131] | 5.19^[a] |
| Cc1ccc(CC2CON=C(c3cc(Cl)ncc3Oc3cccc(N(C)C)c3)N2)c(C)c1 (stereo not shown) [Compound I-132] | 4.47^[a] |
| Cc1ccc(CC2CON=C(c3c(Oc4cccc(C(F)(F)F)c4)cnc(Cl)c3-c3ccccc3)N2)c(C)c1 (stereo not shown) [Compound I-133] | 5.04^[a] |
| CC(=O)Oc1cccc(Oc2cnc(Cl)cc2C2=NOCC(Cc3ccc(C)cc3C)N2)c1 (stereo not shown) [Compound I-134] | 3.90^[a] |
| Cc1cccc(Oc2cnc(Cl)cc2C2=NOCC(Cc3ccc(Cl)cc3Cl)N2)c1F (stereo not shown) [Compound I-135] | 4.75^[a] |
| Cc1ccc(CC2CON=C(c3cc(Cl)ncc3Oc3cccc(C)c3F)N2)c(Cl)c1 (stereo not shown) [Compound I-136] | 4.66^[a] |
| Oc1cc(C2=NOCC(Cc3ccc(Br)cc3Cl)N2)c(Oc2cccc(C(F)F)c2)cn1 (stereo not shown) [Compound I-137] | 4.56^[a] |

| Compound | LogP |
| --- | --- |
| FC(F)(F)c1cccc(Oc2cnc(Cl)cc2C2=NOCC(Cc3csc(Cl)c3)N2)c1 (stereo not shown) [Compound I-138] | 4.38^[a] |
| Cc1ccc(CC2CON=C(c3cc(Cl)ncc3Oc3cnc4c(c3)CCC4)N2)c(C)c1 (stereo not shown) [Compound I-140] | 3.17^[a] |
| CCc1cccc(Oc2cnc(Cl)cc2C2=NOCC(Cc3ccc(Cl)cc3Cl)N2)c1F (stereo not shown) [Compound I-141] | 5.16^[a] |
| CCOc1cccc(Oc2cnc(Cl)cc2C2=NOCC(Cc3ccc(C)cc3C)N2)c1 (stereo not shown) [Compound I-142] | 4.59^[a] |
| Cc1ccc(CC2CON=C(c3cc(Cl)ncc3Oc3cccc(Cl)c3F)N2)c(C)c1 (stereo not shown) [Compound I-144] | 4.59^[a] |
| FC(F)(F)c1cccc(Oc2cnc(Cl)cc2C2=NOCC(Cc3cc(Cl)sc3Cl)N2)c1 (stereo not shown) [Compound I-145] | 4.83^[a] |
| Cc1ccc(C2CCON=C(c3cc(Cl)ncc3Oc3cccc(C(F)(F)F)c3)N2)cc1 (stereo not shown) [Compound I-146] | 2.06^[a] |
| COc1cccc(Oc2cnc(Cl)cc2C2=NOCC(Cc3ccc(C)cc3C)N2)c1F (stereo not shown) [Compound I-147] | 4.06^[a] |
| FC(F)(F)Oc1cccc(Oc2cnc(Cl)cc2C2=NOCC(Cc3ccc(Cl)cc3Cl)N2)c1 (stereo not shown) [Compound I-148] | 4.88^[a] |
| Fc1c(Oc2cnc(Cl)cc2C2=NOCC(Cc3ccc(Cl)cc3Cl)N2)cccc1OC(F)(F)F (stereo not shown) [Compound I-149] | 4.88^[a] |
| Cc1ccc(CC2CON=C(c3c(Oc4cccc(C(F)(F)F)c4)cnc(Cl)c3C3CC3)N2)c(C)c1 (stereo not shown) [Compound I-150] | 4.70^[a] |
| Cc1cccc(CC2CON=C(c3cc(Cl)ncc3Oc3cccc(Cl)c3F)N2)c1Cl (stereo not shown) [Compound I-151] | 4.62^[a] |
| COc1cc(C2=NOCC(Cc3ccc(C)cc3C)N2)c(Oc2cccc(C(F)(F)F)c2)cn1 (stereo not shown) [Compound I-152] | 4.55^[a] |
| COCc1cccc(Oc2cnc(Cl)cc2C2=NOCC(Cc3ccc(C)cc3C)N2)c1 (stereo not shown) [Compound I-153] | 4.10^[a] |
| CSc1cccc(Oc2cnc(Cl)cc2C2=NOCC(Cc3ccc(C)cc3C)N2)c1F (stereo not shown) [Compound I-154] | 4.47^[a] |
| COc1ccc(C2CCON=C(c3cc(Cl)ncc3Oc3cccc(C(F)(F)F)c3)N2)cc1 (stereo not shown) [Compound I-155] | 1.90^[a] |
| C#Cc1ccc(CC2CON=C(c3cc(Cl)ncc3Oc3cccc(C(F)(F)F)c3)N2)c(C)c1 (stereo not shown) [Compound I-156] | 4.08^[a] |
| Cc1cccc(C2CON=C(c3cc(Cl)ncc3Oc3cccc(C(F)(F)F)c3)N2)c1C (stereo not shown) [Compound I-157] | 4.23^[a] |
| Cc1cc(Br)ccc1CC1CON=C(c2cc(Cl)ncc2Oc2cccc(C(F)(F)F)c2)N1 (stereo not shown) [Compound I-158] | 4.81^[a] |

Same assay, conditions: Table 1, compounds of formula (I); method [a]: LC-UV, acidic range, 0.1% formic acid in water and acetonitrile

| Compound | chromatographic logP |
| --- | --- |
| Cc1ccc(CC2CON=C(c3cc(N4CCCC4)ncc3Oc3cccc(C(F)(F)F)c3)N2)cc1 (racemic) [Compound I-056, (5RS)-5-(4-methylbenzyl)-3-{2-(pyrrolidin-1-yl)-5-[3-(trifluoromethyl)phenoxy]pyridin-4-yl}-5,6-dihydro-4H-1,2,4-oxadiazine] | 3.5 |
| Cc1ccc(CC2CCN=C(c3cc(Cl)ncc3Oc3cccc(C(F)(F)F)c3)N2)c(C)c1 (racemic) [Compound I-088, rac-(6R)-2-[2-chloro-5-[3-(trifluoromethyl)phenoxy]-4-pyridyl]-6-[(2,4-dimethylphenyl)methyl]-1,4,5,6-tetrahydropyrimidine] | 2.62 |
| Cc1ccc(CC2CC(=O)N=C(c3cc(Cl)ncc3Oc3cccc(C(F)(F)F)c3)N2)c(C)c1 (racemic) [Compound I-098, rac-(6R)-2-[2-chloro-5-[3-(trifluoromethyl)phenoxy]-4-pyridyl]-6-[(2,4-dimethylphenyl)methyl]-5,6-dihydro-1H-pyrimidin-4-one] | 4.62 |

Same assay, conditions: Table 3, compounds of formula (1); method [a]: LC-UV, acidic range, 0.1% formic acid in water and acetonitrile

| Compound | chromatographic logP |
| --- | --- |
| O=C(O)c1cc(Cl)ncc1Oc1cccc(C(F)(F)F)c1 [Compound 1-13, 2-chloro-5-[3-(trifluoromethyl)phenoxy]isonicotinic acid] | 2.84 |

Same assay, conditions: Table 15, compounds of formula (9); method [a]: LC-UV, acidic range, 0.1% formic acid in water and acetonitrile

| Compound | chromatographic logP |
| --- | --- |
| N#Cc1cc(Cl)ncc1Oc1cccc(C(F)(F)F)c1 [Compound 9-01, 2-chloro-5-[3-(trifluoromethyl)phenoxy]isonicotinonitrile] | 3.77 |

Same assay, conditions: Table 17, compounds of formula (10); method [a]: LC-UV, acidic range, 0.1% formic acid in water and acetonitrile

| Compound | chromatographic logP |
| --- | --- |
| NC(=NO)c1cc(Cl)ncc1Oc1cccc(C(F)(F)F)c1 [Compound 10-01, 2-chloro-N′-hydroxy-5-[3-(trifluoromethyl)phenoxy]pyridine-4-carboximidamide] | 2.41 |

Same assay, conditions: Table 17, compounds of formula (12); method [a]; several values joined by + in some cells

| Compound | chromatographic logP |
| --- | --- |
| COc1ccc(C(=O)C(F)(F)ON=C(N)c2cc(Cl)ncc2Oc2cccc(C(F)(F)F)c2)cc1 [Compound 12-09, 2-chloro-N′-[1,1-difluoro-2-(4-methoxyphenyl)-2-oxoethoxy]-5-[3-(trifluoromethyl)phenoxy]pyridine-4-carboximidamide] | 3.65 |

System: Colletotrichum lindemuthianum
Assay: Colletotrichum lindemuthianum in vitro cell test
Assay type: cell-based
Conditions: 144 h, 20 ppm of active ingredient, liquid culture with spores, 6 days incubation, spectrometric measurement of mycelium growth, read-out: efficacy (inhibition of fungal growth)
Method: as §1, with “B-7. Colletotrichum lindemuthianum In” for “B-5. Alternaria alternata In”, “of C. lindemuthianum” for “of A. alternata”, “inhibit spores” for “inhibit spore”, “After 6” for “After 5”

| Compound | inhibition at 20 ppm |
| --- | --- |
| Cc1ccc(CC2CON=C(c3cc(N4CCCC4)ncc3Oc3cccc(C(F)(F)F)c3)N2)cc1 (racemic) [Compound I-056, (5RS)-5-(4-methylbenzyl)-3-{2-(pyrrolidin-1-yl)-5-[3-(trifluoromethyl)phenoxy]pyridin-4-yl}-5,6-dihydro-4H-1,2,4-oxadiazine] | 90 to 100% |
| Cc1ccc(CC2CCN=C(c3cc(Cl)ncc3Oc3cccc(C(F)(F)F)c3)N2)c(C)c1 (racemic) [Compound I-088, rac-(6R)-2-[2-chloro-5-[3-(trifluoromethyl)phenoxy]-4-pyridyl]-6-[(2,4-dimethylphenyl)methyl]-1,4,5,6-tetrahydropyrimidine] | 70 to 79% |
| Cc1ccc(CC2CC(=O)N=C(c3cc(Cl)ncc3Oc3cccc(C(F)(F)F)c3)N2)c(C)c1 (racemic) [Compound I-098, rac-(6R)-2-[2-chloro-5-[3-(trifluoromethyl)phenoxy]-4-pyridyl]-6-[(2,4-dimethylphenyl)methyl]-5,6-dihydro-1H-pyrimidin-4-one] | 90 to 100% |
